Measured values from PMC7933318, “Engineering a lipoxygenase from cyclocybe aegerita towards long chain polyunsaturated fatty acids” (AMB Express, 2021).

Target: T1, CaeLox1 (Cyclocybe aegerita, UniProt A0A8A1QR86)
T1 construct: gene LOX1; codon-optimized cDNA in pET28a, E. coli BL21-Gold (DE3), Ni-NTA purified
T1 sequence (A0A8A1QR86 1-656): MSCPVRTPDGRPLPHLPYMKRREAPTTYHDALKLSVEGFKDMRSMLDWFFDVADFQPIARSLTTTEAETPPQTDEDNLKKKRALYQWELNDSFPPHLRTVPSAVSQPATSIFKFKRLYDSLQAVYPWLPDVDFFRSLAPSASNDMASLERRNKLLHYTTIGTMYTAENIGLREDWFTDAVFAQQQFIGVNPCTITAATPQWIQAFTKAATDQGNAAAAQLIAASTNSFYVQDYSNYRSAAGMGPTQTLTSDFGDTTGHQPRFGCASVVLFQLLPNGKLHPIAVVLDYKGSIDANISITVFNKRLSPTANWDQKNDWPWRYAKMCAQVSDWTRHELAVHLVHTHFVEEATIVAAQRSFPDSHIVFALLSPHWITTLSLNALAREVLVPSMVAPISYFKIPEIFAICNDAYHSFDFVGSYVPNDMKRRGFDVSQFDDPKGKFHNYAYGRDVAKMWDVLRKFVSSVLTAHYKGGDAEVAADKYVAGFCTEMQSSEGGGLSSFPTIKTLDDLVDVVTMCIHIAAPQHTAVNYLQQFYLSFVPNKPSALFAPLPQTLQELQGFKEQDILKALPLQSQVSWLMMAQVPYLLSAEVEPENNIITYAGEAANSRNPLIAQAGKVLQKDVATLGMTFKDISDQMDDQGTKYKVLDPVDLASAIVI
Assay: conjugated diene formation at […] nm, specific activity
Type: biochemical
Settings: 1.25 mM PUFA, 50 mM phosphate pH 7.5, 25 °C

Which specific activity does the source give for CCCCC/C=C\C/C=C\CCCCCCCC(=O)O [LA, linoleic acid] here?
The specific activity was “we investigated the specific activities of PUFAs occurring (linoleic acid, linolenic acid)”.
